Reference: the supplement of paper PMC8967900

What was measured:
Assay in all cases: selective drug sensitivity score (sDSS, relative to normal bone marrow) (sDSS (score)); higher = more potent and effective on the cell line relative to normal bone marrow cells
Conditions in all cases: 72 h
KARPAS-45 = system: KARPAS-45
RPMI-8402 = system: RPMI-8402
COG-LL-332h = system: COG-LL-332h
697 = system: 697
TMD5 = system: TMD5
P12-ICHIKAWA = system: P12-ICHIKAWA
CCRF-CEM = system: CCRF-CEM
KOPN-8 = system: KOPN-8
MHH-CALL-4 = system: MHH-CALL-4
COG-LL-355h = system: COG-LL-355h
LC4-1 = system: LC4-1
DND-41 = system: DND-41
MOLT-16 = system: MOLT-16
MHH-CALL-2 = system: MHH-CALL-2
NALL-1 = system: NALL-1
CCRF-HSB2 = system: CCRF-HSB2
SUP-B15 = system: SUP-B15
MN-60 = system: MN-60
P30-OHKUBO = system: P30-OHKUBO
HAL-01 = system: HAL-01
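Note: ALL cell lines in 384-well plates, five doses spanning 10,000-fold, each plate scaled between vehicle and 100 µmol/L benzalkonium chloride controls, sDSS an adapted area-under-curve metric.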

| SMILES | selective drug sensitivity score (KARPAS-45) | selective drug sensitivity score (RPMI-8402) | selective drug sensitivity score (COG-LL-332h) | selective drug sensitivity score 697 | selective drug sensitivity score (TMD5) | selective drug sensitivity score (P12-ICHIKAWA) | selective drug sensitivity score (CCRF-CEM) | selective drug sensitivity score (KOPN-8) | selective drug sensitivity score (MHH-CALL-4) | selective drug sensitivity score (COG-LL-355h) | selective drug sensitivity score (LC4-1) | selective drug sensitivity score (DND-41) | selective drug sensitivity score (MOLT-16) | selective drug sensitivity score (MHH-CALL-2) | selective drug sensitivity score (NALL-1) | selective drug sensitivity score (CCRF-HSB2) | selective drug sensitivity score (SUP-B15) | selective drug sensitivity score (MN-60) | selective drug sensitivity score (P30-OHKUBO) | selective drug sensitivity score (HAL-01) |
| --- | --- | --- | --- | --- | --- | --- | --- | --- | --- | --- | --- | --- | --- | --- | --- | --- | --- | --- | --- | --- |
| CCN(CC)CCNC(=O)c1c(C)[nH]c(/C=C2\C(=O)Nc3ccc(-c4csc(-c5ccccc5)n4)cc32)c1C [Amcasertib] (top concentration 10000 nM) | 6.4 | -1.5 | 7.2 | 2.4 | -1.7 | 0 | 6.7 | -1.1 | 2.2 | 6.8 | 0.9 | 6.8 | 3.5 | 4.9 | 5.2 | 3.1 | 0.5 | -0.2 | 3.9 | 7.4 |
| CC(=O)c1c(C)c2cnc(Nc3ccc(N4CCNCC4)cn3)nc2n(C2CCCC2)c1=O [Palbociclib] (top concentration 10000 nM) | 3.68 | 5.98 | 3.68 | 14.3 | -5.22 | 4.78 | 4.38 | 16.5 | -1.82 | 2.88 | 4.38 | 2.48 | 8.58 | 3.68 | -1.72 | 1.68 | 2.38 | -0.62 | 9.58 | 1.48 |
| CN(C(=O)c1ccc(F)cc1C(F)(F)F)C1CCN(c2nnc(-c3ccnn3C)c3ccccc23)CC1 [Taladegib] (top concentration 10000 nM) | -0.92 | 2.38 | 1.08 | 1.88 | -1.02 | -0.22 | -0.82 | 6.68 | -1.12 | 1.48 | 4.58 | -1.12 | 3.88 | 3.18 | -1.12 | -0.92 | 3.78 | -1.12 | -0.02 | 2.78 |
| CCN(CC)CCNC(=O)c1c(C)[nH]c(/C=C2\C(=O)Nc3ccc(F)cc32)c1C [Sunitinib] (top concentration 1000 nM) | -0.64 | -1.24 | -1.44 | 1.16 | 3.26 | -1.34 | -1.44 | -1.44 | 2.06 | 5.66 | -0.84 | -1.44 | -1.44 | 1.86 | -1.44 | 1.36 | 6.86 | -1.44 | 0.76 | 3.36 |
| Nc1ncnc2c1nc(N)n2[C@@H]1O[C@H](CO)[C@@H](O)[C@H]1O [8-amino-adenosine] (top concentration 50000 nM) | -3.32 | 0.18 | 3.18 | 6.48 | 2.68 | 0.38 | 6.48 | 7.48 | 2.18 | -1.42 | 7.78 | -0.62 | 5.68 | 3.28 | 2.08 | 6.98 | 7.28 | 1.58 | 6.18 | 7.08 |
| C#Cc1cccc(Nc2ncnc3cc(OCCOC)c(OCCOC)cc23)c1 [Erlotinib] (top concentration 10000 nM) | 2.86 | 2.26 | 1.96 | 5.86 | -0.34 | 1.56 | 2.06 | 7.06 | -1.24 | 3.46 | 8.66 | -1.24 | 4.36 | 1.76 | -1.24 | 4.66 | 8.96 | 0.96 | 2.96 | 0.46 |
| O=C(Nc1ccc2[nH]nc(-c3ccncc3)c2c1)[C@@H]1CCN(CC(=O)N2CCN(c3ccc(-c4ncccn4)cc3)CC2)C1 (top concentration 10000 nM) | -0.84 | -1.64 | -0.54 | 0.66 | -0.34 | 1.06 | -0.54 | 12.9 | 3.96 | 6.26 | 4.26 | 4.46 | 1.06 | 1.26 | -4.14 | 3.26 | 12.6 | -3.64 | -3.74 | 0.06 |
| C[C@@H]1COCCN1c1cc(C2([S@](C)(=N)=O)CC2)nc(-c2cc[nH]c3nccc2-3)n1 [AZD6738] (top concentration 25000 nM) | 8.28 | 8.98 | 8.08 | 11 | 5.88 | 9.98 | 10.8 | 15.5 | 5.48 | 6.18 | 8.48 | 8.58 | 13 | 13.2 | 7.68 | 4.58 | 9.68 | -1.02 | 5.78 | 9.58 |
| C=CC(=O)N1CC/C(=C\c2ccc(F)c([N+](=O)[O-])c2)C(=O)/C(=C/c2ccc(F)c([N+](=O)[O-])c2)C1 [VLX1570] (top concentration 10000 nM) | -1.02 | -6.52 | -0.52 | -1.02 | -2.62 | -4.92 | 1.58 | 3.88 | -1.22 | 6.08 | 0.68 | 1.18 | -1.32 | -3.32 | -4.52 | -2.12 | 1.38 | -5.32 | 1.88 | -2.52 |
